Where a SMILES comes first, the peptide text is derived from it. The star is where a group is joined. Cbz = O=C(OCc1ccccc1)*; CH2F = FC*
Experiments:
[1] = system: isolated mouse neonatal cardiomyocytes; test: Proliferation of cultured neonatal (P1) cardiomyocytes (cell number, EdU incorporation, Ki67, FACS); assay type: cell-based; conditions: for EdU+ cardiomyocytes: pan-caspase inhibition experiment, 48 h, SAG with/without pan-caspase inhibition; for Ki67+-Actinin+ cells: versus DMSO control
Experimental: Immunohistochemistry was performed on cryosections (10 μm thick) using standard procedures (Singh et al., 2012; Singh et al. 2007; Adhikari et al., 2011; Singh et al., 2010). Briefly, sections were rehydrated, permeabilized and blocked with 10% normal donkey serum (NDS), 0.1% Triton X-100 in PBS at room temperature and incubated overnight at 4° C. with primary antibodies: α-actinin (Abeam; 1:300), desmin (Novus biologicals; 1:300), Shh (Santa Cruz Biotechnology; 1:200), endomucin (Abeam; 1:100), SM22 (Abeam; 1:400), α-phospho-Histone H3 (Ser10) (Millipore; 1:100), Ki67 (Abcam; 1:200), PCNA (Santa Cruz Biotechnology; 1:100), Mef2a (Santa Cruz Biotechnology; 1:100), Smoothened (Abcam; 1:200), Nkx 2-5 (Santa Cruz Biotechnology; 1:100) and GFP (ThermoFisher Scientific; 1:300) sera. Sections were rinsed and incubated with combinations of secondary antibodies (1:400) including Alexa 488, Alexa 594, Cy3 and Cy5 (Jackson ImmunoResearch Laboratories). EdU staining was performed using the EdU labeling kit (Life Technologies)
Ventricular cardiomyocytes were isolated using previously published protocols (Collesi et al. 2008). Briefly, ventricles were dissected from P1 pups, minced in CBFHH (calcium and bicarbonate-free Hanks with Hepes) buffer. Subsequently, the minced ventricles were digested in CBFHH buffer containing 1.75 mg/ml of trypsin and 20 μg/ml of DNaseII (Sigma-Aldrich). Cells were preplated for 1 h (3 times) onto 100-mm primaria (Corning Life Sciences) dishes in culture medium containing 10% serum to remove fibroblasts. Unattached cardiomyocytes were plated at a desired density. […] After 12 h, the culture medium was changed and cells were subjected to the different treatments (SAG; 4 μg/mL and CyA; 5 μg/ml) and analyzed. For apoptotic pathway inhibition, neonatal cardiomyocytes were treated with cell permeable small molecule inhibitor (Z-VAD-FMK; R&D Systems) with or with SAG. For the EdU incorporation assay, cardiomyocytes were incubated with 20 μM EdU for 48 h and fixed using 4% PFA for 10 min at room temperature. […] For qPCR and FACS analysis, cells were harvested using trypsin and processed for further analysis. […] For the EdU incorporation assay, cardiomyocytes were incubated with 20 μM EdU for 48 h and fixed using 4% PFA for 10 min at room temperature.

regenerating newt heart = conditions: continuous blockade of HH signals, CyA 2 μg/mL in aquarium water daily; n=8, p<0.05
Experimental: Adult red-spotted newts, Notophthalmus viridescens, were housed as described in Singh et al. (2012). For heart resection surgery, adult newts were anesthetized in 0.1% MS-222 solution for 10 min. Each newt was placed in a supine position under a stereomicroscope. The outer skin was wiped using 70% ethanol-chlorhexidine solution and the pericardial sac was opened to expose the heart. The apex of the ventricle was resected (˜25-30%) using iricdectomy scissors. Following resection, the blood flow was controlled by the formation of the blood clot. The resected heart was maneuvered carefully into the pericardial sac and sutured using 8.0 ethilon monofilament sutures. Following resection surgery, newts were allowed to recover in an isolated tank containing sulfmerazine antibiotic solution and later placed in their designated aquariums. The resected ventricular mass was measured using a Sartorius weighing balance. […] CyA-mediated inhibition of HH signaling was achieved by daily treatment of the resected newts at 2 μg/mL diluted in the aquarium water. At specified time periods, animals were sacrificed and tissues were collected for further processing. For EdU labelling, the resected newts were injected intraperitoneally (i.p.) with 100 μg/gm of EdU for a 7 day period prior to sacrifice and harvested for immunohistochemical analysis. […]

HH signaling [2] = test: qPCR of HH pathway and cell cycle transcripts in neonatal cardiomyocytes; assay type: cell-based, mouse; conditions: for Gli1 expression (qPCR) / Gli3 expression (qPCR) / Mycn transcripts (qPCR): isolated mouse neonatal cardiomyocytes
Experimental: (§1) RNA isolation and qPCR analysis from newt tissue was performed as previously described^5. For chamber based qPCR analysis, the regenerating heart including BA, AT and ventricle was harvested and rinsed in PBS to remove blood cells. Subsequently, the BA, AT and ventricle were collected from heart tissue (n=12) for further processing. RNA isolation from cultured cardiomyocytes was performed using a standard protocol as per the manufacturer's instructions. Total RNA was isolated using the miRVANA kit (Ambion) and cDNA was made using SuperScript […] kit (Invitrogen).
Briefly, ventricles were dissected from P1 pups, minced in CBFHH (calcium and bicarbonate-free Hanks with Hepes) buffer. […] Cells were preplated for 1 h (3 times) onto 100-mm primaria (Corning Life Sciences) dishes in culture medium containing 10% serum to remove fibroblasts. Unattached cardiomyocytes were plated at a desired density. […] For apoptotic pathway inhibition, neonatal cardiomyocytes were treated with cell permeable small molecule inhibitor (Z-VAD-FMK; R&D Systems) with or with SAG. For the EdU incorporation assay, cardiomyocytes were incubated with 20 μM EdU for 48 h and fixed using 4% PFA for 10 min at room temperature. […] For qPCR and FACS analysis, cells were harvested using trypsin and processed for further analysis. For the time-lapse microscopic experiments, isolated P7 mCherry+ cardiomyocytes were plated on glass-bottom petri dish coated with fibronectin. After 2 h of attachment, media was changed containing DMSO or SAG and the petri dish was placed in the environmental chamber for imaging. […] Briefly, the adult heart tissue was dissociated by perfusion of a collagenase type 2 enzyme solution. Isolated cardiomyocytes were cultured in 1% serum media in the presence of DMSO or SAG. For the EdU incorporation assay, cardiomyocytes were incubated with 20 μM EdU for 48 h and fixed using 4% PFA for 10 min at room temperature.

day-60 hiPSC-CMs = test: Proliferation of day-60 hiPSC-derived cardiomyocytes (EdU, Ki67); assay type: cell-based, human; conditions: 48 h, n=3, p<0.01
Experimental: The media was then changed with RPMI/B27 minus insulin and BMP4 and FGF from d1-d2. On d3, the medium was changed with RPMI/B27 minus insulin and IWP-4. The differentiated cells were maintained in RPMI/B27 with insulin media from d5-d60. […] Immunohistochemical analysis was performed as described previously.

[3] = system: isolated mouse neonatal cardiomyocytes; test: Live/dead assay in cultured neonatal cardiomyocytes; assay type: cell-based; conditions: 48 h; n=3
Experimental: (§2) Ventricular cardiomyocytes were isolated using previously published protocols (Collesi et al. 2008). Briefly, ventricles were dissected from P1 pups, minced in CBFHH (calcium and bicarbonate-free Hanks with Hepes) buffer. Subsequently, the minced ventricles were digested in CBFHH buffer containing 1.75 mg/ml of trypsin and 20 μg/ml of DNaseII (Sigma-Aldrich). Cells were preplated for 1 h (3 times) onto 100-mm primaria (Corning Life Sciences) dishes in culture medium containing 10% serum to remove fibroblasts. Unattached cardiomyocytes were plated at a desired density. Using this protocol, we routinely obtained >85-90% cardiomyocytes (confirmed using immunohistochemical techniques and an alpha-actinin antibody). […] For apoptotic pathway inhibition, neonatal cardiomyocytes were treated with cell permeable small molecule inhibitor (Z-VAD-FMK; R&D Systems) with or with SAG. For the EdU incorporation assay, cardiomyocytes were incubated with 20 μM EdU for 48 h and fixed using 4% PFA for 10 min at room temperature. P7 cardiomyocytes were isolated using a similar protocol as that of the P1 cardiomyocyte isolation protocol with modifications including the perfusion based tissue digestion using collagenase type-2 enzyme solution. >95% rod-shaped binucleated cardiomyocytes were routinely obtained using this protocol. […]

P7 cardiomyocytes = test: Proliferation of isolated P7 cardiomyocytes (EdU incorporation, time-lapse microscopy); assay type: cell-based, mouse
Experimental: Ventricular cardiomyocytes were isolated using previously published protocols (Collesi et al. 2008). Briefly, ventricles were dissected from P1 pups, minced in CBFHH (calcium and bicarbonate-free Hanks with Hepes) buffer. Subsequently, the minced ventricles were digested in CBFHH buffer containing 1.75 mg/ml of trypsin and 20 μg/ml of DNaseII (Sigma-Aldrich). Cells were preplated for 1 h (3 times) onto 100-mm primaria (Corning Life Sciences) dishes in culture medium containing 10% serum to remove fibroblasts. Unattached cardiomyocytes were plated at a desired density. Using this protocol, we routinely obtained >85-90% cardiomyocytes (confirmed using immunohistochemical techniques and an alpha-actinin antibody). […] For apoptotic pathway inhibition, neonatal cardiomyocytes were treated with cell permeable small molecule inhibitor (Z-VAD-FMK; R&D Systems) with or with SAG. For the EdU incorporation assay, cardiomyocytes were incubated with 20 μM EdU for 48 h and fixed using 4% PFA for 10 min at room temperature. P7 cardiomyocytes were isolated using a similar protocol as that of the P1 cardiomyocyte isolation protocol with modifications including the perfusion based tissue digestion using collagenase type-2 enzyme solution. >95% rod-shaped binucleated cardiomyocytes were routinely obtained using this protocol. For qPCR and FACS analysis, cells were harvested using trypsin and processed for further analysis. For the time-lapse microscopic experiments, isolated P7 mCherry+ cardiomyocytes were plated on glass-bottom petri dish coated with fibronectin. After 2 h of attachment, media was changed containing DMSO or SAG and the petri dish was placed in the environmental chamber for imaging. Adult cardiomyocyte isolation was performed (Mahmoud et al., 2013). Briefly, the adult heart tissue was dissociated by perfusion of a collagenase type 2 enzyme solution. Isolated cardiomyocytes were cultured in 1% serum media in the presence of DMSO or SAG. For the EdU incorporation assay, cardiomyocytes were incubated with 20 μM EdU for 48 h and fixed using 4% PFA for 10 min at room temperature.

[4] = system: adult mouse cardiomyocytes; test: EdU incorporation in isolated adult cardiomyocytes; assay type: cell-based; conditions: n=3, p<0.05
Experimental: as §2

HH signaling [5] = test: qPCR in P7 cardiomyocytes; assay type: cell-based, mouse; conditions: P7-isolated cardiomyocytes
Experimental: as §1
Ventricular cardiomyocytes were isolated using previously published protocols (Collesi et al. 2008). Briefly, ventricles were dissected from P1 pups, minced in CBFHH (calcium and bicarbonate-free Hanks with Hepes) buffer. Subsequently, the minced ventricles were digested in CBFHH buffer containing 1.75 mg/ml of trypsin and 20 μg/ml of DNaseII (Sigma-Aldrich). Cells were preplated for 1 h (3 times) onto 100-mm primaria (Corning Life Sciences) dishes in culture medium containing 10% serum to remove fibroblasts. Unattached cardiomyocytes were plated at a desired density. Using this protocol, we routinely obtained >85-90% cardiomyocytes (confirmed using immunohistochemical techniques and an alpha-actinin antibody). […]

COC(=O)C[C@H](NC(=O)[C@H](C)NC(=O)[C@@H](NC(=O)OCc1ccccc1)C(C)C)C(=O)CF [pan-caspase inhibitor, Z-VAD-FMK] (Cbz-Val-Ala-Asp(OMe)-CH2F)
EdU+ cardiomyocytes ([1]; n=3): did not result in any change

c1ccc2c(Oc3nc(Nc4ccc(N5CCOCC5)cc4)c4ncn(C5CCCCC5)c4n3)cccc2c1 [Purmorphamine]
cardiomyocyte proliferation (Actinin+-EdU+, immunohistochemical images) ([1]; isolated neonatal cardiomyocytes pulsed with EdU, FIG. 20): promotes cardiomyocyte proliferation

CC1=C2C[C@H]3[C@@H](CC=C4C[C@@H](O)CC[C@@]43C)[C@@H]2CC[C@]12O[C@@H]1C[C@H](C)CN[C@H]1[C@H]2C [CyA, Cyclopamine]
Ki67+-Actinin+ cells ([1]; n=3): not detected
heart regeneration following injury (regenerating newt heart): complete ablation of heart regeneration and induction of scar formation
Gli1 expression (qPCR) (HH signaling [2]): reduced
Gli3 expression (qPCR) (HH signaling [2]): increased
Mycn transcripts (qPCR) (HH signaling [2]): reduced expression

CNC1CCC(N(Cc2cccc(-c3ccncc3)c2)C(=O)c2sc3ccccc3c2Cl)CC1 (stereo not drawn) [SAG]
increased α-Actinin+-EdU+ cardiomyocytes (day-60 hiPSC-CMs): 2 fold
increased α-Actinin+-Ki67+ cardiomyocytes (day-60 hiPSC-CMs): ~3 fold
increase in α-Actinin+-EdU+ cells compared to controls ([1]; SAG 4 μg/mL, EdU 48 h, n=4, p<0.05): 2.5 fold
increased cardiomyocyte proliferation, FACS analysis of α-Actinin+-EdU+ population ([1]; n=3, p<0.05): 2.5 fold
EdU+ cardiomyocytes ([1]; n=3): comparable increase
cardiomyocyte proliferation (α-Actinin+-EdU+) ([1]; serum-free conditions, n=3, p<0.05): increased cardiomyocyte proliferation
number of cultured neonatal cardiomyocytes ([1]; various concentrations): dose-dependent increase
Ki67+-Actinin+ cells ([1]; n=3): increased number
live/dead assay versus control [3]: No difference
α-Actinin+-EdU+ cardiomyocytes (P7 cardiomyocytes; P7 cardiomyocytes, n=4): increased number
increase in number of mono-, bi-, and multi-nucleated cardiomyocytes (P7 cardiomyocytes; P7 cardiomyocytes, n=4, p<0.05): ~3 fold
dividing αMHC-mCherry+ P7 cardiomyocytes (time-lapse microscopy) (P7 cardiomyocytes; none found in DMSO control): multiple dividing
α-Actinin+-EdU+ cardiomyocytes [4]: increased number
expression of Cdkn1b (p27) (qPCR) (HH signaling [5]): reduced expression
expression of Ptc1, Ccne1 and Ccnd2 (qPCR) (HH signaling [5]): increased expression
Ptc1, Ccnd2, Ccnd1 and Ccne1 transcripts (qPCR) (HH signaling [2]; HH signaling activation): induction of cell cycle kinetics
Gli1 expression (qPCR) (HH signaling [2]): induced
Gli3 expression (qPCR) (HH signaling [2]): reduced
Mycn transcripts (qPCR) (HH signaling [2]): increased
levels of caspase-3 transcripts (qPCR) (HH signaling [2]; versus control, data not shown): unaltered

— patent publication US11725217B2, “Methods to enhance myocardial regeneration and/or repair” (Regents of the University of Minnesota, priority 2018, dated 2023)
